Measurements taken from the NIST ThermoML archive (doi:10.1021/je050020m).
Numbers after ± are expanded uncertainties.

Details: Liquid, Vibrating tube method

CCCCCCCCCC [decane]
Details	mass density [kg/m3]
313.09 K, 1048 kPa	715.63 ± 0.56
313.09 K, 2010 kPa	716.43 ± 0.56
313.09 K, 2997 kPa	717.28 ± 0.56
313.09 K, 4060 kPa	718.18 ± 0.57
313.09 K, 5029 kPa	718.98 ± 0.57
313.09 K, 6019 kPa	719.8 ± 0.57
313.09 K, 7016 kPa	720.64 ± 0.58
313.09 K, 8050 kPa	721.47 ± 0.58
313.09 K, 9000 kPa	722.24 ± 0.58
313.09 K, 10029 kPa	723.06 ± 0.59
313.09 K, 11016 kPa	723.85 ± 0.59
313.09 K, 12012 kPa	724.63 ± 0.6
313.09 K, 13027 kPa	725.4 ± 0.6
313.09 K, 14011 kPa	726.15 ± 0.6
313.09 K, 15010 kPa	726.91 ± 0.61
313.09 K, 16030 kPa	727.65 ± 0.61
313.09 K, 17016 kPa	728.38 ± 0.62
313.09 K, 18037 kPa	729.1 ± 0.62
313.09 K, 19000 kPa	729.81 ± 0.63
313.09 K, 20019 kPa	730.5 ± 0.63
313.09 K, 21014 kPa	731.21 ± 0.63
313.09 K, 22032 kPa	731.92 ± 0.64
313.09 K, 23021 kPa	732.62 ± 0.64
313.09 K, 24016 kPa	733.33 ± 0.65
313.09 K, 25012 kPa	734.06 ± 0.65
323.03 K, 1025 kPa	707.94 ± 0.56
323.03 K, 2017 kPa	708.85 ± 0.56
323.03 K, 3015 kPa	709.76 ± 0.56
323.03 K, 4018 kPa	710.65 ± 0.57
323.03 K, 5022 kPa	711.53 ± 0.57
323.03 K, 6021 kPa	712.41 ± 0.57
323.03 K, 7018 kPa	713.31 ± 0.58
323.03 K, 8022 kPa	714.15 ± 0.58
323.03 K, 9016 kPa	715.01 ± 0.58
323.03 K, 10012 kPa	715.84 ± 0.59
323.03 K, 11022 kPa	716.67 ± 0.59
323.03 K, 12015 kPa	717.51 ± 0.6
323.03 K, 13020 kPa	718.33 ± 0.6
323.03 K, 14011 kPa	719.12 ± 0.6
323.03 K, 15010 kPa	719.9 ± 0.61
323.03 K, 16019 kPa	720.71 ± 0.61
323.03 K, 17010 kPa	721.46 ± 0.62
323.03 K, 18013 kPa	722.22 ± 0.62
323.03 K, 19033 kPa	723 ± 0.63
323.03 K, 20022 kPa	723.74 ± 0.63
323.03 K, 21014 kPa	724.45 ± 0.64
323.03 K, 22023 kPa	725.22 ± 0.64
323.03 K, 23025 kPa	725.93 ± 0.65
323.03 K, 24016 kPa	726.68 ± 0.65
323.03 K, 25021 kPa	727.42 ± 0.66
332.95 K, 1022 kPa	700.4 ± 0.56
332.95 K, 2005 kPa	701.33 ± 0.56
332.95 K, 3025 kPa	702.32 ± 0.56
332.95 K, 4025 kPa	703.25 ± 0.56
332.95 K, 5018 kPa	704.2 ± 0.57
332.95 K, 6018 kPa	705.12 ± 0.57
332.95 K, 7019 kPa	706.08 ± 0.58
332.95 K, 8023 kPa	706.96 ± 0.58
332.95 K, 9021 kPa	707.89 ± 0.58
332.95 K, 10017 kPa	708.78 ± 0.59
332.95 K, 11033 kPa	709.68 ± 0.59
332.95 K, 12023 kPa	710.54 ± 0.6
332.95 K, 13009 kPa	711.42 ± 0.6
332.95 K, 14016 kPa	712.21 ± 0.6
332.95 K, 15025 kPa	713.05 ± 0.61
332.95 K, 16011 kPa	713.87 ± 0.61
332.95 K, 17017 kPa	714.69 ± 0.62
332.95 K, 18016 kPa	715.5 ± 0.62
332.95 K, 19015 kPa	716.28 ± 0.63
332.95 K, 20029 kPa	717.09 ± 0.63
332.95 K, 21001 kPa	717.84 ± 0.64
332.95 K, 22034 kPa	718.63 ± 0.64
332.95 K, 23017 kPa	719.41 ± 0.65
332.95 K, 24023 kPa	720.18 ± 0.65
332.95 K, 25002 kPa	720.95 ± 0.66
343.8 K, 1014 kPa	692.56 ± 0.55
343.8 K, 2027 kPa	693.64 ± 0.56
343.8 K, 3016 kPa	694.64 ± 0.56
343.8 K, 4020 kPa	695.65 ± 0.56
343.8 K, 5016 kPa	696.67 ± 0.57
343.8 K, 6019 kPa	697.68 ± 0.57
343.8 K, 7026 kPa	698.66 ± 0.58
343.8 K, 8022 kPa	699.65 ± 0.58
343.8 K, 9014 kPa	700.58 ± 0.58
343.8 K, 10017 kPa	701.53 ± 0.59
343.8 K, 11022 kPa	702.48 ± 0.59
343.8 K, 12021 kPa	703.39 ± 0.6
343.8 K, 13011 kPa	704.27 ± 0.6
343.8 K, 14013 kPa	705.16 ± 0.61
343.8 K, 15025 kPa	706.05 ± 0.61
343.8 K, 16019 kPa	706.94 ± 0.61
343.8 K, 17010 kPa	707.79 ± 0.62
343.8 K, 18023 kPa	708.61 ± 0.62
343.8 K, 19030 kPa	709.47 ± 0.63
343.8 K, 20008 kPa	710.25 ± 0.64
343.8 K, 21017 kPa	711.1 ± 0.64
343.8 K, 22035 kPa	711.92 ± 0.65
343.8 K, 23004 kPa	712.73 ± 0.65
343.8 K, 24008 kPa	713.53 ± 0.66
343.8 K, 25103 kPa	714.44 ± 0.66
352.71 K, 2132 kPa	686.04 ± 0.56
352.71 K, 3053 kPa	687.07 ± 0.56
352.71 K, 4028 kPa	688.15 ± 0.56
352.71 K, 5028 kPa	689.19 ± 0.57
352.71 K, 6065 kPa	690.28 ± 0.57
352.71 K, 7007 kPa	691.26 ± 0.57
352.71 K, 8041 kPa	692.36 ± 0.58
352.71 K, 9064 kPa	693.4 ± 0.58
352.71 K, 10047 kPa	694.38 ± 0.59
352.71 K, 11019 kPa	695.38 ± 0.59
352.71 K, 12012 kPa	696.31 ± 0.6
352.71 K, 13031 kPa	697.31 ± 0.6
352.71 K, 14010 kPa	698.18 ± 0.61
352.71 K, 15014 kPa	699.14 ± 0.61
352.71 K, 16012 kPa	700.05 ± 0.62
352.71 K, 17008 kPa	700.95 ± 0.62
352.71 K, 17959 kPa	701.8 ± 0.63
352.71 K, 19020 kPa	702.7 ± 0.63
352.71 K, 20044 kPa	703.6 ± 0.64
352.71 K, 21044 kPa	704.46 ± 0.64
352.71 K, 22024 kPa	705.31 ± 0.65
352.71 K, 23009 kPa	706.13 ± 0.65
352.71 K, 24014 kPa	707 ± 0.66
352.71 K, 25000 kPa	707.86 ± 0.66
362.63 K, 2054 kPa	678.23 ± 0.55
362.63 K, 3010 kPa	679.34 ± 0.56
362.63 K, 4132 kPa	680.68 ± 0.56
362.63 K, 5020 kPa	681.68 ± 0.57
362.63 K, 6026 kPa	682.79 ± 0.57
362.63 K, 7042 kPa	683.95 ± 0.57
362.63 K, 8057 kPa	685.06 ± 0.58
362.63 K, 9014 kPa	686.08 ± 0.58
362.63 K, 10034 kPa	687.17 ± 0.59
362.63 K, 10999 kPa	688.24 ± 0.59
362.63 K, 12014 kPa	689.26 ± 0.6
362.63 K, 13025 kPa	690.26 ± 0.6
362.63 K, 13992 kPa	691.22 ± 0.61
362.63 K, 15019 kPa	692.24 ± 0.61
362.63 K, 16004 kPa	693.18 ± 0.62
362.63 K, 17008 kPa	694.11 ± 0.62
362.63 K, 18002 kPa	695.04 ± 0.63
362.63 K, 19037 kPa	696.02 ± 0.63
362.63 K, 20027 kPa	696.93 ± 0.64
362.63 K, 21030 kPa	697.8 ± 0.64
362.63 K, 22003 kPa	698.73 ± 0.65
362.63 K, 23027 kPa	699.61 ± 0.66
362.63 K, 24046 kPa	700.55 ± 0.66
362.63 K, 25011 kPa	701.39 ± 0.67
